Assay results taken from US10150764B2, “Substituted benzene compounds” (Epizyme, Inc., priority 2013, dated 2018).

What was measured:
[1] = target: wild-type EZH2 (PRC2 enzyme) (Homo sapiens (Human), UniProt Q15910); test: PRC2 enzyme assay on peptide substrate, wild-type EZH2 (H3K27me0 peptide, 3H-SAM Flashplate); format: biochemical; conditions: wild-type PRC2 4 nM, read-out: WT EZH2 IC50
Description: (§1) Human PRC2 enzymes were purified as 4-component enzyme complexes co-expressed in Spodoptera frugiperda (sf9) cells using a baculovirus expression system. […] The EED subunit contained an N-terminal FLAG tag that was used to purify the entire 4-component complex from sf9 cell lysates.
(§2) The assays were all performed in a buffer consisting of 20 mM bicine (pH=7.6), 0.5 mM DTT, 0.005% BSG and 0.002% Tween20, prepared on the day of use. […] DMSO (1 μL) was added to columns 11, 12, 23, 24, rows A-H for the maximum signal control, and SAH, a known product and inhibitor of PRC2 (1 μL) was added to columns 11, 12, 23, 24, rows I-P for the minimum signal control. A cocktail (40 μL) containing the wild-type PRC2 enzyme and H3K27me0 peptide or any of the Y641 mutant enzymes and H3K27me2 peptide was added by Multidrop Combi (Thermo). The compounds were allowed to incubate with PRC2 for 30 min at 25° C., then a cocktail (10 μL) containing a mixture of non-radioactive and ^3H-SAM was added to initiate the reaction (final volume=51 μL). […] The assays were stopped by the addition of non-radioactive SAM (10 μL) to a final concentration of 600 μM, which dilutes the ^3H-SAM to a level where its incorporation into the peptide substrate is no longer detectable. 50 of the reaction in the 384-well polypropylene plate was then transferred to a 384-well Flashplate and the biotinylated peptides were allowed to bind to the streptavidin surface for at least 1 h before being washed three times with 0.1% Tween20 in a Biotek ELx405 plate washer. The plates were then read in a PerkinElmer TopCount platereader to measure the quantity of ^3H-labeled peptide bound to the Flashplate surface, measured as disintegrations per minute (dpm) or alternatively, referred to as counts per minute (cpm).

[2] = target: EZH2 Y641F mutant (PRC2 enzyme) (Homo sapiens (Human), UniProt Q15910, Y641F); test: PRC2 enzyme assay on peptide substrate, EZH2 Y641F mutant (H3K27me2 peptide, 3H-SAM Flashplate); format: biochemical; conditions: Y641F mutant PRC2 4 nM
Description: as §1, §2

[3] = test system: H3K27me3 in WSU-DLCL2 cells; test: WSU-DLCL2 methylation assay (H3K27me3 ELISA); format: cell-based, human; conditions: Homo sapiens, WSUDLCL2, 96 hours incubation, H3K27me3 normalised to total H3
Description: WSU-DLCL2 Methylation Assay
WSU-DLCL2 suspension cells were purchased from DSMZ (German Collection of Microorganisms and Cell Cultures, Braunschweig, Germany). RPMI/Glutamax Medium, Penicillin-Streptomycin, Heat Inactivated Fetal Bovine Serum, and D-PBS were purchased from Life Technologies, Grand Island, N.Y., USA. Extraction Buffer and Neutralization Buffer (5×) were purchased from Active Motif, Carlsbad, Calif., USA. Rabbit anti-Histone H3 antibody was purchased from Abcam, Cambridge, Mass., USA. Rabbit anti-H3K27me3 and HRP-conjugated anti-rabbit-IgG were purchased from Cell Signaling Technology, Danvers, Mass., USA. TMB “Super Sensitive” substrate was sourced from BioFX Laboratories, Owings Mills, Md., USA. IgG-free Bovine Serum Albumin was purchased from Jackson ImmunoResearch, West Grove, Pa., USA. PBS with Tween (10×PBST) was purchased from KPL, Gaithersburg, Md., USA. Sulfuric Acid was purchased from Ricca Chemical, Arlington, Tex., USA. Immulon ELISA plates were purchased from Thermo, Rochester, N.Y., USA. V-bottom cell culture plates were purchased from Corning Inc., Corning, N.Y., USA. V-bottom polypropylene plates were purchased from Greiner Bio-One, Monroe, N.C., USA.
WSU-DLCL2 suspension cells were maintained in growth medium (RPMI 1640 supplemented with 10% v/v heat inactivated fetal bovine serum and 100 units/mL penicillin-streptomycin) and cultured at 37° C. under 5% CO2. Under assay conditions, cells were incubated in Assay Medium (RPMI 1640 supplemented with 20% v/v heat inactivated fetal bovine serum and 100 units/mL penicillin-streptomycin) at 37° C. under 5% CO2 on a plate shaker.
WSU-DLCL2 cells were seeded in assay medium at a concentration of 50,000 cells per mL to a 96-well V-bottom cell culture plate with 200 μL per well. […] Plates were incubated on a titer-plate shaker at 37° C., 5% CO2 for 96 hours. After four days of incubation, plates were spun at 241×g for five minutes and medium was aspirated gently from each well of cell plate without disturbing cell pellet. Pellet was resuspended in: 200 μL DPBS and plates were spun again at 241×g for five minutes. The supernatant was aspirated and cold (4° C.) Extraction buffer (100 μL) was added per well. Plates were incubated at 4° C. on orbital shaker for two hours. Plates were spun at 3427×g×10 minutes. Supernatant (80 μL per well) was transferred to its respective well in 96 well V-bottom polypropylene plate. Neutralization Buffer 5× (20 μL per well) was added to V-bottom polypropylene plate containing supernatant. V-bottom polypropylene plates containing crude histone preparation (CHP) were incubated on orbital shaker×five minutes. Crude Histone Preparations were added (2 μL per well) to each respective well into duplicate 96 well ELISA plates containing 100 μL Coating Buffer (1×PBS+BSA 0.05% w/v). Plates were sealed and incubated overnight at 4° C. The following day, plates were washed three times with 300 μL per well 1×PBST. […] For H3K27me3 detection, 100 μL of HRP conjugated anti-rabbit IgG antibody diluted to 1:4000 in ELISA diluent was added per well. Plates were incubated at room temperature for 90 minutes. […] TMB substrate 100 μL was added per well. Histone H3 plates were incubated for five minutes at room temperature. H3K27me3 plates were incubated for 10 minutes at room temperature. The reaction was stopped with sulfuric acid 1N (100 μL per well). Absorbance for each plate was read at 450 nm.
Each plate included eight control wells DMSO only treatment (Minimum Inhibition) as well as eight control wells for maximum inhibition (Background wells).
The average of the ratio values for each control type was calculated and used to determine the percent inhibition for each test well in the plate. Test compound was serially diluted three-fold in DMSO for a total of ten test concentrations, beginning at 25 μM.

WSU-DLCL2 cells = test: Cell proliferation analysis, WSU-DLCL2 (Cell Titer Glo); format: cell-based; conditions: Homo sapiens, WSUDLCL2, 144 h, 6 days incubation, ATP readout
Description: Cell Proliferation Analysis
WSU-DLCL2 suspension cells were purchased from DSMZ (German Collection of Microorganisms and Cell Cultures, Braunschweig, Germany), RPMI/Glutamax Medium, Penicillin-Streptomycin, Heat Inactivated Fetal Bovine Serum were purchased from Life Technologies, Grand Island, N.Y., USA, V-bottom polypropylene 384-well plates were purchased from Greiner Bio-One, Monroe, N.C., USA. Cell culture 384-well white opaque plates were purchased from Perkin Elmer, Waltham, Mass., USA. Cell-Titer Glo® was purchased from Promega Corporation, Madison, Wis., USA. SpectraMax M5 plate reader was purchased from Molecular Devices LLC, Sunnyvale, Calif., USA.
WSU-DLCL2 suspension cells were maintained in growth medium (RPMI 1640 supplemented with 10% v/v heat inactivated fetal bovine serum and cultured at 37° C. under 5% CO2. Under assay conditions, cells were incubated in Assay Medium (RPMI 1640 supplemented with 20% v/v heat inactivated fetal bovine serum and 100 units/mL penicillin-streptomycin) at 37° C. under 5% CO2.
For the assessment of the effect of compounds on the proliferation of the WSU-DLCL2 cell line, exponentially growing cells were plated in 384-well white opaque plates at a density of 1250 cell/ml in a final volume of 50 μl of assay medium. A compound source plate was prepared by performing triplicate nine-point 3-fold serial dilutions in DMSO, beginning at 10 mM (final top concentration of compound in the assay was 20 μM and the DMSO was 0.2%). A 100 nL aliquot from the compound stock plate was added to its respective well in the cell plate. […] After addition of compounds, assay plates were incubated for 6 days at 37° C., 5% CO2, relative humidity >90% for 6 days. Cell viability was measured by quantization of ATP present in the cell cultures, adding 35 μl of Cell Titer Glo® reagent to the cell plates. Luminescence was read in the SpectraMax M5. The concentration inhibiting cell viability by 50% was determined using a 4-parametric fit of the normalized dose response curves.

EZH2 Y641F mutant (PRC2 enzyme), sequence (Q15910 whole entry Y641F): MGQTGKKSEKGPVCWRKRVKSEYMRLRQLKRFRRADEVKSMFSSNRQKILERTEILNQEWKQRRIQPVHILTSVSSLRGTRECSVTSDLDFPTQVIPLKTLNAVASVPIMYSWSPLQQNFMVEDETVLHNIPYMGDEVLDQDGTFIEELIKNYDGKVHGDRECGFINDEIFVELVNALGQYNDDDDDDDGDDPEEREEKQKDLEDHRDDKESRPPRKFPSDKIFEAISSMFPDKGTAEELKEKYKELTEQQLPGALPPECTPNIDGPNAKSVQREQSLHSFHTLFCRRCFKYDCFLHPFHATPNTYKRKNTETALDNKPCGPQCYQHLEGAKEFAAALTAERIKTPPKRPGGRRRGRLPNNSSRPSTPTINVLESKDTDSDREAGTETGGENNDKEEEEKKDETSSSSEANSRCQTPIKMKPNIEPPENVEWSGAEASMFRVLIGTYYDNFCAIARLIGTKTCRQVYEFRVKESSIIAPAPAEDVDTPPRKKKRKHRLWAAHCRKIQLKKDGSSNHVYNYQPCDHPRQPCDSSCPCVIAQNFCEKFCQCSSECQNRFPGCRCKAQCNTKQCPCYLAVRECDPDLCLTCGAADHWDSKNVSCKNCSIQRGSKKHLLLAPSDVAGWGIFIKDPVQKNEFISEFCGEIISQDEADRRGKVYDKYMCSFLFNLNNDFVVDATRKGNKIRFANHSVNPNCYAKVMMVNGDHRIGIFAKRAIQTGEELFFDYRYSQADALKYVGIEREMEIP
EZH2 Y641F mutant (PRC2 enzyme), sequence (O75530 whole entry partner): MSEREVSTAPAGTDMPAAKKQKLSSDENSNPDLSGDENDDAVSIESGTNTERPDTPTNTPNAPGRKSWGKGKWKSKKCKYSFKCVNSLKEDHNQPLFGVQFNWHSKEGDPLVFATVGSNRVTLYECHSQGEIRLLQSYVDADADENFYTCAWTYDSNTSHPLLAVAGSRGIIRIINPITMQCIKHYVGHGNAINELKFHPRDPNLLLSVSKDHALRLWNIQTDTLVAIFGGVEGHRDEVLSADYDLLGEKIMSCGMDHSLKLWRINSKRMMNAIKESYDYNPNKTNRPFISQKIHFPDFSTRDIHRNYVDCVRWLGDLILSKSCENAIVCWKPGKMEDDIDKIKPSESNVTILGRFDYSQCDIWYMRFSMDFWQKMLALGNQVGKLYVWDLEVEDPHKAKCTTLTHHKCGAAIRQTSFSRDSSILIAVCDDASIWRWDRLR
EZH2 Y641F mutant (PRC2 enzyme), sequence (Q15022 whole entry partner): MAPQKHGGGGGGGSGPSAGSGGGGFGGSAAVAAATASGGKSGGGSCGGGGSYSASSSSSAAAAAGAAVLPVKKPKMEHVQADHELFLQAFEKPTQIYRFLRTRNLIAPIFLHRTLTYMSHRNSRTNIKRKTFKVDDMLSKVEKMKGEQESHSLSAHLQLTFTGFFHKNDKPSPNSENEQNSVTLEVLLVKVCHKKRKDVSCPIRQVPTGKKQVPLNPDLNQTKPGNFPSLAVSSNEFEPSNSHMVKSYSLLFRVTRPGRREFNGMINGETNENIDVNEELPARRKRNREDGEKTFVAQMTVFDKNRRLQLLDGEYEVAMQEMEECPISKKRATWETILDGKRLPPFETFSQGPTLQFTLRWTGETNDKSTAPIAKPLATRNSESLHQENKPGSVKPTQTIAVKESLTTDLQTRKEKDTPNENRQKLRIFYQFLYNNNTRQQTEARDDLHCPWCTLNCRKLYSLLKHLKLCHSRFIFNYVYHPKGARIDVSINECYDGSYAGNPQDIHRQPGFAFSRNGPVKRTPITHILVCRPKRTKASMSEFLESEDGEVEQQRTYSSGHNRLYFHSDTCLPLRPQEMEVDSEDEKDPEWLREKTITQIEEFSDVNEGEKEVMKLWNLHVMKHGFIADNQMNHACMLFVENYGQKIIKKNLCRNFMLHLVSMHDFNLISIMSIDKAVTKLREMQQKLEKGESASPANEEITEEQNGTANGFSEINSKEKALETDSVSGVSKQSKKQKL
EZH2 Y641F mutant (PRC2 enzyme), sequence (Q09028 whole entry partner): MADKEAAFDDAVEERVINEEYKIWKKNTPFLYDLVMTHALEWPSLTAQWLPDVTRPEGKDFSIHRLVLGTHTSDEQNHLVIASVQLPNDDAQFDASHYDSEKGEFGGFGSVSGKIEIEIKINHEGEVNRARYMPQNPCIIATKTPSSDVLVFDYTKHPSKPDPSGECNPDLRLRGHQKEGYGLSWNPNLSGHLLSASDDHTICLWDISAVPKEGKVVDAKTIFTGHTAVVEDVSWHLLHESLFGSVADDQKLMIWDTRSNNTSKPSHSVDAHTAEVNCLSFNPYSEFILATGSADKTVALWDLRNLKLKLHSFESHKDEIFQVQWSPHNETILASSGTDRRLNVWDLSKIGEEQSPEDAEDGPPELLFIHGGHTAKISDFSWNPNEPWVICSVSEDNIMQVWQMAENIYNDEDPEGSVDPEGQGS
wild-type EZH2 (PRC2 enzyme), sequence (Q15910 whole entry): as the sequence (Q15910 whole entry Y641F) above, with F641Y counted along it
wild-type EZH2 (PRC2 enzyme), sequence (O75530 whole entry partner): as the sequence (O75530 whole entry partner) above
wild-type EZH2 (PRC2 enzyme), sequence (Q15022 whole entry partner): as the sequence (Q15022 whole entry partner) above
wild-type EZH2 (PRC2 enzyme), sequence (Q09028 whole entry partner): as the sequence (Q09028 whole entry partner) above

Row | IC50 [1] [nM] | IC50 [2] [nM] | Compound | IC50 [3] [nM] | IC50 (WSU-DLCL2 cells) [nM]
1 | 18 | 5 | CCN(c1cc(Cl)cc(C(=O)NCc2c(N3CCCC3)n(C)[nH]c2=O)c1C)[C@H]1CC[C@H](N(C)C)CC1 [Compound 81, 5-chloro-3-(((trans)-4-(dimethylamino)cyclohexyl) (ethyl)amino)-2-methyl-N-((1-methyl-3-oxo-5-(pyrrolidin-1-yl)-2,3-dihydro-1H-pyrazol-4-yl)methyl)benzamide] | 2190 | 1260
2 | 35200 | 7520 | CCOc1n[nH]c(C)c1CNC(=O)c1cc(Cl)cc(N(CC)[C@H]2CC[C@H](N(C)C)CC2)c1C [Compound 85, 5-chloro-3-(((trans)-4-(dimethylamino)cyclohexyl)(ethyl)amino)-N-((3-ethoxy-5-methyl-1H-pyrazol-4-yl)methyl)-2-methylbenzamide] | > 50000 | 6380
3 | 21 | 1 | CCN(c1cc(Cl)cc(C(=O)NCc2c(OC)n(C)[nH]c2=O)c1C)[C@H]1CC[C@H](N(C)C)CC1 [Compound 86, 5-chloro-3-(ethyl((trans)-4-(dimethylamino)cyclohexyl]amino)-N-((5-methoxy-1-methyl-3-oxo-2,3-dihydro-1H-pyrazol-4-yl)methyl)-2-methylbenzamide] | 1790 | 1130
